Drawing on ChEMBL document CHEMBL4342451, “α-Glucosidase Inhibitory Isomeric Corniculatolides from the Stems of the Indian Mangrove Plant, Xylocarpus granatum” (J Nat Prod, 2020), this text covers Activity and IC50 for eight molecules.

The subject of one test is HCT-116. Briefly: Cytotoxicity against human HCT116 cells assessed as reduction in cell viability at 1 to 100 uM incubated for 24 to 48 hrs by SRB assay. The format is functional, cell-based. On the technique in general: Sulforhodamine B stains cellular protein and so reports cell mass.
The subject of a further test is MCF7. Briefly: Cytotoxicity against human MCF7 cells assessed as reduction in cell viability at 1 to 100 uM incubated for 24 to 48 hrs by SRB assay. The format is functional, cell-based.
The next test relates to MIA PaCa-2. The experiment in a line: Cytotoxicity against human MIAPaCa2 cells assessed as reduction in cell viability at 1 to 100 uM incubated for 24 to 48 hrs by SRB assay. The format is functional, cell-based.
The next test has as its system DU-145. Briefly: Cytotoxicity against human DU145 cells assessed as reduction in cell viability at 1 to 100 uM incubated for 24 to 48 hrs by SRB assay. It is filed as functional, cell-based.
A short description of test [1]: Inhibition of Saccharomyces cerevisiae alpha-glucosidase assessed as decrease in release of p-nitrophenol using pNPG as substrate preincubated for 15 min followed by substrate addition and measured after 5 mins by spectrophotometric method.

SMILES strings stand for the structures. The source made the active and inactive calls. The rule behind the calls is not given here. Where only a bound is given, the exact number is not on record here.

Broadly, the IC50 is the concentration that inhibits the measured activity by half.

Consider `COc1cc2cc(c1OC)Oc1ccc(cc1)CCC(=O)OCCC2`, for which the result in the test with HCT-116, in the test with MCF7, with MIA PaCa-2 and in the test with DU-145 was inactive. Also, the concentration for half-maximal inhibition (IC50) in test [1] turned out to be 134 µM.
With `O=C1CCc2ccc(O)c(c2)Oc2ccc(cc2)CCCO1` [CORNICULATOLIDE A], the outcome in the test with HCT-116, in the test with MCF7, with MIA PaCa-2 and in the test with DU-145 was inactive. In test [1], the half-inhibitory concentration (IC50) came to 187 µM.
As for `COc1ccc2cc1Oc1ccc(cc1)CCCOC(=O)CC2`, the outcome in the test with HCT-116, in the test with MCF7, with MIA PaCa-2 and with DU-145 was inactive. Besides, the IC50 in test [1] came out at 65.4 µM.
As for `C[C@H]1O[C@H](O[C@H]2[C@H](O)[C@@H](O)[C@@H](O[C@H]3[C@H](O)[C@@H](O)C(O)O[C@@H]3CO)O[C@@H]2CO)[C@H](O)[C@@H](O)[C@@H]1N[C@H]1C=C(CO)[C@@H](O)[C@H](O)[C@H]1O` (stereo partly specified) [ACARBOSE], the IC50 in test [1] was 12.2 µM.
In the case of `O=C1CCc2ccc(cc2)Oc2cc(ccc2O)CCCO1` [ISOCORNICULATOLIDE A], the result with HCT-116, in the test with MCF7, with MIA PaCa-2 and with DU-145 was inactive. In addition, the 50% inhibitory concentration (IC50) in test [1] is greater than 200 µM.
Regarding `COc1c(O)cc2cc1Oc1ccc(cc1)CCCOC(=O)CC2`, the result with HCT-116, with MCF7, in the test on MIA PaCa-2 and in the test on DU-145 was inactive. In test [1], the half-maximal inhibitory concentration (IC50) is greater than 200 µM.
Turning to `COc1cc2cc(c1OC)Oc1ccc(cc1)CCCOC(=O)CC2`, the outcome with HCT-116, with MCF7, in the test on MIA PaCa-2 and with DU-145 was inactive. In addition, in test [1], the IC50 turned out to be 72.3 µM.
For `O=C1CCc2cc(O)c(O)c(c2)Oc2ccc(cc2)CCCO1`, the result in the test on HCT-116, in the test on MCF7, with MIA PaCa-2 and in the test with DU-145 was inactive. Also, the 50% inhibitory concentration (IC50) in test [1] was found to be 24.8 µM.
